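Method: 48-hour compound exposure of cells in 96-well plates, five concentrations, linear interpolation of endpoints. GI50 marks 50% less growth.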 Activity calls are given as the source filed them. No stated cut-off is given here; in the data, active = GI50 up to about 1.1 µM and inactive = higher.
How the values were obtained:
Test in all cases: NCI anticancer screen, dose series, 48 h
DU-145 = test system: DU-145
MOLT-4 = test system: MOLT-4
UACC-257 = test system: UACC-257
T47D = test system: T47D
SK-MEL-28 = test system: SK-MEL-28
A498 = test system: A498
MDA-N = test system: MDA-N
SK-OV-3 = test system: SK-OV-3
HOP-62 = test system: HOP-62
TK-10 = test system: TK-10
NCI/ADR-RES = test system: NCI/ADR-RES
MDA-MB-231 = test system: MDA-MB-231
CAKI-1 = test system: CAKI-1
RPMI-8226 = test system: RPMI-8226
HL-60 = test system: HL-60
NCI-H226 = test system: NCI-H226
BT-549 = test system: BT-549
HT-29 = test system: HT-29
SF-268 = test system: SF-268
SN12C = test system: SN12C
Hs-578T = test system: Hs-578T
UACC-62 = test system: UACC-62
ACHN = test system: ACHN
SR = test system: SR
SNB-19 = test system: SNB-19
CCRF-CEM = test system: CCRF-CEM
HCT-15 = test system: HCT-15
SF-539 = test system: SF-539
OVCAR-8 = test system: OVCAR-8
OVCAR-5 = test system: OVCAR-5
NCI-H23 = test system: NCI-H23
MCF7 = test system: MCF7
NCI-H460 = test system: NCI-H460
OVCAR-4 = test system: OVCAR-4
SNB-75 = test system: SNB-75
SK-MEL-5 = test system: SK-MEL-5
COLO 205 = test system: COLO 205
LOX IMVI = test system: LOX IMVI
EKVX = test system: EKVX
HOP-92 = test system: HOP-92
RXF 393 = test system: RXF 393
OVCAR-3 = test system: OVCAR-3
HCT-116 = test system: HCT-116
A549 = test system: A549
M14 = test system: M14
PC-3 = test system: PC-3
K562 = test system: K562
KM12 = test system: KM12
SF-295 = test system: SF-295
U-251 = test system: U-251
IGROV-1 = test system: IGROV-1
NCI-H522 = test system: NCI-H522
Malme-3M = test system: Malme-3M
786-0 = test system: 786-0
UO-31 = test system: UO-31
SW-620 = test system: SW-620
MDA-MB-435 = test system: MDA-MB-435
HCC 2998 = test system: HCC 2998
SK-MEL-2 = test system: SK-MEL-2

Cc1nc2[nH]ccn2c(=O)c1CCCl
GI50 (DU-145): 23.6 µM (inactive) | GI50 (MOLT-4): 14.8 µM (inactive) | GI50 (UACC-257): 94.2 µM (inactive) | GI50 (T47D): 91 µM (inactive) | GI50 (SK-MEL-28): 30.1 µM (inactive) | GI50 (A498): 19 µM (inactive) | GI50 (MDA-N): 21.9 µM (inactive) | GI50 (SK-OV-3): 26.5 µM (inactive) | GI50 (HOP-62): 23.6 µM (inactive) | GI50 (TK-10): 31 µM (inactive) | GI50 (NCI/ADR-RES): 26.5 µM (inactive) | GI50 (MDA-MB-231): 38.7 µM (inactive) | GI50 (CAKI-1): > 10 µM (inactive) | GI50 (RPMI-8226): 28 µM (inactive) | GI50 (HL-60): 25.4 µM (inactive) | GI50 (NCI-H226): > 100 µM (inactive) | GI50 (BT-549): 25.2 µM (inactive) | GI50 (HT-29): 33.7 µM (inactive) | GI50 (SF-268): 36.4 µM (inactive) | GI50 (SN12C): 19.6 µM (inactive) | GI50 (Hs-578T): 37.6 µM (inactive) | GI50 (UACC-62): 24.8 µM (inactive) | GI50 (ACHN): 23.1 µM (inactive) | GI50 (SR): 24.2 µM (inactive) | GI50 (SNB-19): 57.1 µM (inactive) | GI50 (CCRF-CEM): 18 µM (inactive) | GI50 (HCT-15): 39.7 µM | GI50 (SF-539): 17.1 µM (inactive) | GI50 (OVCAR-8): 26.7 µM (inactive) | GI50 (OVCAR-5): > 100 µM (inactive) | GI50 (NCI-H23): 18.3 µM (inactive) | GI50 (MCF7): 68.1 µM (inactive) | GI50 (NCI-H460): 20.6 µM (inactive) | GI50 (OVCAR-4): 20.1 µM (inactive) | GI50 (SNB-75): 39.3 µM (inactive) | GI50 (SK-MEL-5): 17.1 µM (inactive) | GI50 (COLO 205): 38.7 µM (inactive) | GI50 (LOX IMVI): 16.6 µM (inactive) | GI50 (EKVX): > 100 µM (inactive) | GI50 (HOP-92): 21.4 µM (inactive) | GI50 (RXF 393): 19.4 µM (inactive) | GI50 (OVCAR-3): 25.2 µM (inactive) | GI50 (HCT-116): 17 µM (inactive) | GI50 (A549): 45.5 µM (inactive) | GI50 (M14): 31.8 µM (inactive) | GI50 (PC-3): 49.7 µM (inactive) | GI50 (K562): 22.9 µM (inactive) | GI50 (KM12): 20.4 µM (inactive) | GI50 (SF-295): 31.6 µM (inactive) | GI50 (U-251): 20.9 µM (inactive) | GI50 (IGROV-1): 26.2 µM (inactive) | GI50 (NCI-H522): 20.7 µM (inactive) | GI50 (Malme-3M): 25.6 µM (inactive) | GI50 (786-0): 25.5 µM (inactive) | GI50 (UO-31): 33 µM (inactive) | GI50 (SW-620): 17.3 µM (inactive) | GI50 (MDA-MB-435): > 10 µM (inactive) | GI50 (HCC 2998): 19.2 µM (inactive)

CC1=CC(=O)C2=C(C)CCC3C(C)C(=O)OC3C12 (stereo not given)
GI50 (DU-145): > 100 µM (inactive) | GI50 (MOLT-4): > 100 µM (inactive) | GI50 (UACC-257): > 100 µM (inactive) | GI50 (T47D): > 100 µM (inactive) | GI50 (SK-MEL-28): > 100 µM (inactive) | GI50 (A498): > 100 µM (inactive) | GI50 (MDA-N): > 100 µM (inactive) | GI50 (SK-OV-3): > 100 µM (inactive) | GI50 (HOP-62): > 100 µM (inactive) | GI50 (TK-10): > 100 µM (inactive) | GI50 (NCI/ADR-RES): > 100 µM (inactive) | GI50 (MDA-MB-231): > 100 µM (inactive) | GI50 (CAKI-1): > 100 µM (inactive) | GI50 (RPMI-8226): > 100 µM (inactive) | GI50 (HL-60): > 100 µM (inactive) | GI50 (NCI-H226): > 100 µM (inactive) | GI50 (BT-549): > 100 µM (inactive) | GI50 (HT-29): > 100 µM (inactive) | GI50 (SF-268): > 100 µM (inactive) | GI50 (SN12C): > 100 µM (inactive) | GI50 (Hs-578T): > 100 µM (inactive) | GI50 (UACC-62): > 100 µM (inactive) | GI50 (ACHN): > 100 µM (inactive) | GI50 (SR): 48 µM (inactive) | GI50 (SNB-19): > 100 µM (inactive) | GI50 (CCRF-CEM): > 100 µM (inactive) | GI50 (SK-MEL-2): > 100 µM (inactive) | GI50 (HCT-15): > 100 µM | GI50 (SF-539): > 100 µM (inactive) | GI50 (OVCAR-8): > 100 µM (inactive) | GI50 (OVCAR-5): > 100 µM (inactive) | GI50 (NCI-H23): > 100 µM (inactive) | GI50 (MCF7): > 100 µM (inactive) | GI50 (NCI-H460): > 100 µM (inactive) | GI50 (OVCAR-4): > 100 µM (inactive) | GI50 (SK-MEL-5): > 100 µM (inactive) | GI50 (COLO 205): > 100 µM (inactive) | GI50 (LOX IMVI): > 100 µM (inactive) | GI50 (EKVX): > 100 µM (inactive) | GI50 (HOP-92): > 100 µM (inactive) | GI50 (RXF 393): > 100 µM (inactive) | GI50 (OVCAR-3): > 100 µM (inactive) | GI50 (HCT-116): > 100 µM (inactive) | GI50 (A549): > 100 µM (inactive) | GI50 (M14): > 100 µM (inactive) | GI50 (PC-3): > 100 µM (inactive) | GI50 (KM12): > 100 µM (inactive) | GI50 (SF-295): > 100 µM (inactive) | GI50 (U-251): > 100 µM (inactive) | GI50 (IGROV-1): > 100 µM (inactive) | GI50 (NCI-H522): > 100 µM (inactive) | GI50 (Malme-3M): > 100 µM (inactive) | GI50 (786-0): > 100 µM (inactive) | GI50 (UO-31): > 100 µM (inactive) | GI50 (SW-620): > 100 µM (inactive) | GI50 (MDA-MB-435): > 100 µM (inactive) | GI50 (HCC 2998): > 100 µM (inactive)

Nc1cc(CO)cc(Nc2c3ccccc3nc3occc23)c1
GI50 (DU-145): 43.3 µM (inactive) | GI50 (MOLT-4): 13.7 µM (inactive) | GI50 (UACC-257): 42.6 µM (inactive) | GI50 (T47D): 29.6 µM (inactive) | GI50 (SK-MEL-28): 36.4 µM (inactive) | GI50 (A498): 51.4 µM (inactive) | GI50 (MDA-N): 25.9 µM (inactive) | GI50 (SK-OV-3): 36.5 µM (inactive) | GI50 (HOP-62): 37.2 µM (inactive) | GI50 (TK-10): 52.6 µM (inactive) | GI50 (NCI/ADR-RES): 22.4 µM (inactive) | GI50 (MDA-MB-231): 31.8 µM (inactive) | GI50 (CAKI-1): 28.6 µM (inactive) | GI50 (RPMI-8226): 26.5 µM (inactive) | GI50 (HL-60): 22.8 µM (inactive) | GI50 (NCI-H226): 29.1 µM (inactive) | GI50 (BT-549): 19.4 µM (inactive) | GI50 (HT-29): 6.76 µM (inactive) | GI50 (SF-268): 21.3 µM (inactive) | GI50 (SN12C): 39 µM (inactive) | GI50 (Hs-578T): 31 µM (inactive) | GI50 (UACC-62): 20.8 µM (inactive) | GI50 (ACHN): 29.8 µM (inactive) | GI50 (SR): 3.91 µM (inactive) | GI50 (SNB-19): > 100 µM (inactive) | GI50 (CCRF-CEM): 48.1 µM (inactive) | GI50 (SK-MEL-2): 23.6 µM (inactive) | GI50 (HCT-15): 25.6 µM | GI50 (SF-539): 24.8 µM (inactive) | GI50 (OVCAR-8): 35.7 µM (inactive) | GI50 (OVCAR-5): > 100 µM (inactive) | GI50 (NCI-H23): 28.9 µM (inactive) | GI50 (MCF7): 20 µM (inactive) | GI50 (NCI-H460): 21.2 µM (inactive) | GI50 (OVCAR-4): 17.1 µM (inactive) | GI50 (SK-MEL-5): 23.1 µM (inactive) | GI50 (COLO 205): 28.6 µM (inactive) | GI50 (LOX IMVI): 36.6 µM (inactive) | GI50 (EKVX): 67.5 µM (inactive) | GI50 (HOP-92): 29.1 µM (inactive) | GI50 (OVCAR-3): 72.4 µM (inactive) | GI50 (HCT-116): 24.8 µM (inactive) | GI50 (A549): 40.4 µM (inactive) | GI50 (M14): 33.6 µM (inactive) | GI50 (PC-3): 64 µM (inactive) | GI50 (KM12): 33.8 µM (inactive) | GI50 (SF-295): 37.7 µM (inactive) | GI50 (U-251): 45.9 µM (inactive) | GI50 (IGROV-1): 24.5 µM (inactive) | GI50 (NCI-H522): 14.4 µM (inactive) | GI50 (Malme-3M): 92 µM (inactive) | GI50 (786-0): 29.9 µM (inactive) | GI50 (UO-31): 32.2 µM (inactive) | GI50 (MDA-MB-435): 10.5 µM (inactive) | GI50 (HCC 2998): 31.3 µM (inactive)

— ChEMBL document CHEMBL1201862, “PubChem BioAssay data set” (2004)
